Patent publication US20060020035A1, “Bone marrow protection with N-acetyl-L-cysteine” (Oregon Health & Science University, priority 2004, published 2006)
Read-outs that look alike come from different tables or passages of the source.

How the values were obtained:
[1] = system: total white cells, granulocytes, and platelets; assay: Example 2: L-NAC and D-NAC on rat blood counts after buthionine sulfoximine and tri-drug chemotherapy; format: in vivo; conditions: pretreatment; rats pretreated with buthionine sulfoximine, tri-drug chemotherapy
Description: In the experiment shown in FIG. 4, rats were pretreated With buthionine sulfoximine to enhance the bone marrow toxicity of chemotherapy, and then treated with the tri-drug chemotherapy regimen with or without L-NAC or D-NAC.

[2] = in vivo; conditions: Long Evans, rat, maximum tolerated dose
Experimental: (§1) Osmotic Blood-Brain Barrier Disruption. Anesthesia was induced with 5% isoflurane and maintained with propofol (650 μg/kg/min). Mannitol (25%, 37° C.) was infused cephalad into the left internal carotid artery via a left external carotid catheter (Remsen et al., Anesthesia Analgesia 88:559-67, 1999).
(§2) Aortic Infusion Technique. The left internal carotid artery was temporarily occluded, and agents were administered retrograde to the descending aorta through a left external carotid catheter (Neuwelt et al., Cancer Res 61:7868-74, 2001).
N-Acetylcysteine Toxicity. N-Acetyl-L-cysteine (N-acetylcysteine, Mucomyst; Roxane Laboratories, Inc., Columbus, Ohio) was given by aortic infusion 30 min (n=7) or 60 min (n=10) before blood brain barrier disruption in normal Long Evans rats. Doses ranged from 400 to 1500 mg/kg in 3 ml infused at 0.6 ml/min. Rats were sacrificed 6 days after treatment or at signs of acute neurotoxicity (head tilt, circling, moribund).

[3] = system: total white cells, granulocytes, and platelets; assay: Major tumor study: blood counts after tri-drug chemotherapy with or without chemoprotection; format: in vivo, nude rats
Experimental: as §1, §2

[4] = N-Acetylcysteine clearance from rat blood (serum concentration, colorimetric kit and HPLC); format: in vivo, Long Evans rats
Experimental: N-Acetylcysteine Clearance. […] Blood samples (0.5 ml) were collected 5, 15, 30, 60, and 90 min after thiol administration, and serum was evaluated for N-acetylcysteine concentration. Serum N-acetylcysteine concentrations were measured using the Bioxytech GSH-400 colorimetric kit (Oxis Research, Portland, Oreg.). The colorimetric assay was validated by high-pressure liquid chromatography (HPLC) analysis of serum thiols for n=2 rats from groups B and D. Deproteinated serum samples were diluted in 160 mM KH2PO4, pH 3. Thiols were measured by electrochemical detection using a Waters radial compression module with 10-μm C18 column (Waters, Milford, Mass.), an ESA 5010 analytical cell, and an ESA 5100A coulochem detector (ESA Inc., Chelmsford, Mass.). Area under the curve was compared with known concentrations prepared in control sera.

[5] = system: bone marrow; conditions: administered immediately after chemotherapy, alone or in combination with N-acetylcysteine (Neuwelt et al. 2001); cited from earlier work
[6] = system: platelets; conditions: 8 g/m^2 intravenous 2, 4, or 8 h after high-dose carboplatin; blood counts 6 days after chemotherapy
Experimental: Pilot study 2 evaluated various timing schemes for chemoprotection. Normal rats (n=54, six rats per group) were treated with a tri-drug chemotherapy regimen consisting of carboplatin (200 mg/m^2), melphalan (10 mg/m^2 Alkeran; GlaxoSmithKline, Uxbridge, Middlesex, UK), and etoposide phosphate (100 mg/m^2 Etopophos; Bristol-Meyers Squibb Co.), administered in the right carotid artery. […] For both pilot studies 1 and 2, blood counts were determined at 6 days after chemotherapy, in comparison with untreated controls. For blood count analysis, 0.5 ml of whole blood collected in EDTA microtubes was analyzed in duplicate on a Hemavet 850 (CDC Technologies Inc., Oxford, Conn.).

[7] = previously reported (Neuwelt et al. 1998); cited from earlier work
[8] = 1000 mg/kg by aortic infusion, 60 min before chemotherapy

For `CC(=O)N[C@H](CS)C(=O)O` [D-NAC, N-acetyl-D-cysteine], the “bone marrow chemoprotective activity (total white cells, granulocytes, and platelets)” value [1] was “not bone marrow protective”.

With `CC(=O)N[C@@H](CS)C(=O)O` [N-acetylcysteine, N-acetyl-L-cysteine] the MTD at 6 days ([2]; aortic infusion 30 min before blood-brain barrier disruption) was 500 mg/kg, the MTD at 6 days ([2]; aortic infusion 60 min before blood-brain barrier disruption) was 1000 mg/kg and the “bone marrow chemoprotective activity (total white cells, granulocytes, and platelets)” value [1] was “significantly reduced chemotherapy toxicity”. For the same compound, the protection for granulocytes [3, 8] was “significantly protective”, the “protection for white cells” value [3, 8] was “significantly protective” and the platelet chemoprotection ([3]; N-acetylcysteine alone, 1000 mg/kg by aortic infusion, 60 min before chemotherapy) was “not significant”. The maximum blood concentration ([4]; 1000 mg/kg intra-arterially, 5 min after infusion) was 11.2 ± 1.3 mM, the “blood concentration at the time of chemotherapy delivery” value ([4]; 1000 mg/kg intra-arterially, 60 min after infusion) was 200 ± 100 µM and the half-life ([4]; Long Evans, rat, serum, other: intravenous or aortic infusion (all groups), all groups: 140-1200 mg/kg, intravenous or aortic infusion) was 9 to 11 min.

In the case of `O=S([O-])([O-])=S.[Na+].[Na+]` [sodium thiosulfate], the “bone marrow chemoprotective activity” value [5] is given as “minimal bone marrow chemoprotective activity”, the platelet chemoprotection [6] is given as “delaying sodium thiosulfate administration improved platelet chemoprotection” and the half-life [7] is given as 15 min. The “protection against chemotherapy-induced bone marrow suppression” value ([3]; sodium thiosulfate 8 g/m^2 4 and 8 h after chemotherapy, with or without N-acetylcysteine 1000 mg/kg 60 min before) was “minimal protective effect”.
